From patent US20130071328A1, “Propynoic Acid Carbamoyl Methyl-Amides and Pharmaceutical Compositions and Methods Based Thereon” (UNIVERSITY OF SOUTHERN CALIFORNIA, priority 2011, published 2013)

Experiments:
[1] = tested on: MDA-MB-435 breast cancer cell line; assay: MTT cytotoxicity assay, MDA-MB-435; type: cell-based, human; conditions: Homo sapiens, MDA-MB-435, 72 h, 72 h exposure
Excerpt: (§1) The human breast cancer cell line MDA-MB-435 and the colon cancer cell line HT29 were purchased from the American Type Cell Culture (Manassas, Va.). Colon cancer cell lines HCT116 p53^+/+ and HCT116 p53^−/− were kindly provided by Dr. Bert Vogelstein (Johns Hopkins Medical Institutions, Baltimore, Md.). The human ovarian carcinoma cell line (HEY), naturally resistant to cisplatin (CDDP), was kindly provided by Dr. Louis Dubeau (USC Norris Cancer Center). The bladder cancer cell lines were kindly provided by Dr. Richard Cote (USC Keck School of Medicine). Cells were maintained as monolayer cultures in the appropriate media: RPMI-1640 (HT29, HCT116 p53^+/+, HCT116 p53^−/−, and HEY cell lines) or DMEM (MDA-MB-435 and UMUC3 cell lines) supplemented with 10% fetal bovine serum (FBS) (HyClone, Road Logan, Utah) at 37° C. in a humidified atmosphere of 5% CO2. To remove the adherent cells from the flask for subculture and counting, cells were washed with PBS without calcium or magnesium, incubated with a small volume of 1×trypsin-EDTA solution (Sigma-Aldrich, St. Louis, Mo.) for 5 min, resuspended with fresh culture medium, and centrifuged at 1200 rpm for 5 min. All experiments were performed using cells in exponential growth phase. Cells were routinely checked for Mycoplasma contamination using PlasmaTest kit (InvivoGen, San Diego, Calif.).
(§2) Cytotoxicity was assessed by MTT assay as described previously. 43 In brief, cells were seeded in 96-well microtiter plates and allowed to attach overnight. Cells were subsequently treated with continuous exposure to corresponding drugs for 72 h. At the end of treatments, an MTT solution (at a final concentration of 0.5 mg/mL) was added to each well, and cells were incubated for 4 h at 37° C. After removal of the supernatant, DMSO was added, and the absorbance was read at 570 nm. All assays were done in triplicate. The IC50 was then determined for each drug from a plot of log(drug concentration) versus percentage of cells killed.

[2] = tested on: HCT116 p53^−/− colon cancer cell line; assay: MTT cytotoxicity assay, HCT116 p53-/-; type: cell-based; conditions: Homo sapiens, HCT-116, 72 h exposure
Excerpt: as §1, §2

[3] = tested on: HEY ovarian cancer cell line; assay: Cytotoxicity assay, HEY; type: cell-based; conditions: Homo sapiens; MTT, 72 h exposure (Table 2)
Excerpt: as §1, §2

[4] = tested on: doxorubicin-resistant NCI/ADR-RES ovarian cancer cell line; assay: Cytotoxicity assay, NCI/ADR-RES; type: cell-based; conditions: Homo sapiens, MTT, 72 h exposure (Table 2)
Procedure: as §2

[5] = tested on: UMUC3 bladder cancer cell line; assay: MTT cytotoxicity assay, UMUC3; type: cell-based; conditions: Homo sapiens, 72 h exposure
Excerpt: as §1, §2

[6] = tested on: HCT116 p53^+/+ colon cancer cell line; assay: MTT cytotoxicity assay, HCT116 p53+/+; type: cell-based; conditions: Homo sapiens, HCT-116, 72 h exposure
Excerpt: as §1, §2

[7] = tested on: HT29 colon cancer cell line; assay: MTT cytotoxicity assay, HT29; type: cell-based; conditions: Homo sapiens, HT-29, 72 h exposure
Excerpt: as §1, §2

[8] = tested on: 5637 bladder cancer cell line; assay: MTT cytotoxicity assay, 5637; type: cell-based, human; conditions: Homo sapiens, 72 h exposure
Excerpt: as §1, §2

SMILES | IC50 [1] | IC50 [2] | IC50 [3] | IC50 [4] | IC50 [5] | IC50 [6] | IC50 [7] | IC50 [8]
C#CC(=O)N(c1cc(OC)cc(OC)c1)C(C(=O)NC1CCCC1)c1ccc(OC)cc1 (centres unmarked) [Compound 11, N-[2-(Cyclopentylamino)-1-(4-methoxyphenyl)-2-oxoethyl]-N-(3,5-dimethoxyphenyl)Propynamide] | 2.4 ± 0.1 µM | > 20 µM | 2.3 ± 0.4 µM | 0.3 µM | > 20 µM | 15 µM | 2.1 ± 0.4 µM | 1.9 ± 0.6 µM
C#CC(=O)N(c1cccc(C(F)(F)F)c1)C(C(=O)NC1CCCC1)c1ccc(F)cc1 (centres unmarked) [Compound 12, N-[2-(Cyclopentylamino)-1-(4-fluorophenyl)-2-oxoethyl]-N-[3-(trifluoromethyl)phenyl]Propynamide] | 5.2 ± 1.2 µM | 6.9 ± 0.6 µM | 2.4 ± 0.2 µM | 0.4 µM | 8 ± 1.4 µM | 7.5 ± 0.7 µM | 4.8 ± 3.2 µM | 0.5 ± 0.3 µM
C#CC(=O)N(c1cccc(C(F)(F)F)c1)C(C(=O)NC1CCCCC1)c1cccs1 (centres unmarked) [Compound 13, N-[2-(Cyclohexylamino)-2-oxo-1-thien-2-ylethyl]-N-[3-(trifluoromethyl)phenyl]Propynamide] | 6.9 ± 0.8 µM | 10.4 ± 0.2 µM | 5.2 ± 3.6 µM | 0.4 µM | > 20 µM | 8.3 ± 1.1 µM | 6 ± 1.4 µM | 1.6 ± 0.7 µM
C#CC(=O)N(c1ccc2ccccc2c1)C(C(=O)NC1CCCC1)c1ccccc1 (centres unmarked) [Compound 14, N-[2-(Cyclopentylamino)-2-oxo-1-phenylethyl]-N-(2-naphthyl)Propynamide] | 7.3 µM | 7.4 ± 0.8 µM | 1.7 ± 1.1 µM | 0.3 µM | > 20 µM | 6.8 ± 1.8 µM | 4.9 ± 3.4 µM | 0.5 ± 0.3 µM
C#CC(=O)N(Cc1ccc2c(c1)OCO2)C(C(=O)NCc1ccccc1)c1ccccc1F (centres unmarked) [Compound 15, N-(1,3-Benzodioxol-5-ylmethyl)-N-[2-(benzylamino)-1-(2-fluorophenyl)-2-oxoethyl]Propynamide] | > 10 µM | > 20 µM | > 10 µM | 1.3 ± 1 µM | > 20 µM | > 10 µM | > 10 µM | 2.8 ± 1.1 µM
C#CC(=O)N(c1cccc(C(F)(F)F)c1)C(C(=O)NCc1ccccc1)c1cccs1 (centres unmarked) [Compound 16, N-[2-(Benzylamino)-2-oxo-1-thien-2-ylethyl]-N-[3-(trifluoromethyl)-phenyl]Propynamide] | 4.2 ± 3 µM | 16.1 ± 5.6 µM | 7.1 ± 2.6 µM | 0.7 ± 0.6 µM | > 20 µM | 9 ± 1.4 µM | 7.3 ± 0.3 µM | 1.2 ± 1.1 µM
C#CC(=O)N(Cc1ccccc1Cl)C(C(=O)NC1CCCC1)c1ccccc1 (centres unmarked) [Compound 17, N-(2-Chlorobenzyl)-N-[2-(cyclopentylamino)-2-oxo-1-phenylethyl]Propynamide] | 8.2 ± 0.2 µM | 7.3 ± 1.4 µM | 5.8 ± 1.3 µM | 2.2 ± 0.2 µM | > 20 µM | 7.7 ± 0.5 µM | 5.4 ± 3 µM | 1.8 ± 0.1 µM
